In PubChem BioAssay (NCI):
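Here, GI50 denotes the concentration required for 50% inhibition of growth. TGI marks complete inhibition of growth.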

Key:
Test in all cases: growth of human tumour cells (NCI), 384-well format
786-0 renal = system: 786-0 renal
A498 renal = system: A498 renal
A549 NSCLC = system: A549 NSCLC
ACHN renal = system: ACHN renal
BT-549 breast = system: BT-549 breast
CAKI-1 renal = system: CAKI-1 renal
CCRF-CEM leukemia = system: CCRF-CEM leukemia
COLO 205 colon = system: COLO 205 colon
DU-145 prostate = system: DU-145 prostate
EKVX NSCLC = system: EKVX NSCLC
HCC-2998 colon = system: HCC-2998 colon
HCT-116 colon = system: HCT-116 colon
HCT-15 colon = system: HCT-15 colon
HL-60(TB) leukemia = system: HL-60(TB) leukemia
HOP-62 NSCLC = system: HOP-62 NSCLC
HOP-92 NSCLC = system: HOP-92 NSCLC
HS 578T breast = system: HS 578T breast
HT29 colon = system: HT29 colon
IGROV1 ovarian = system: IGROV1 ovarian
K-562 leukemia = system: K-562 leukemia
KM12 colon = system: KM12 colon
LOX IMVI melanoma = system: LOX IMVI melanoma
M14 melanoma = system: M14 melanoma
MALME-3M melanoma = system: MALME-3M melanoma
MDA-MB-231 breast = system: MDA-MB-231 breast
MDA-MB-435 melanoma = system: MDA-MB-435 melanoma
MDA-MB-468 breast = system: MDA-MB-468 breast
MOLT-4 leukemia = system: MOLT-4 leukemia
NCI-H226 lung = system: NCI-H226 lung
NCI-H23 lung = system: NCI-H23 lung
NCI-H322M lung = system: NCI-H322M lung
NCI-H460 NSCLC = system: NCI-H460 NSCLC
NCI-H522 lung = system: NCI-H522 lung
NCI/ADR-RES ovarian = system: NCI/ADR-RES ovarian
OVCAR-3 ovarian = system: OVCAR-3 ovarian
OVCAR-4 ovarian = system: OVCAR-4 ovarian
OVCAR-5 ovarian = system: OVCAR-5 ovarian
OVCAR-8 ovarian = system: OVCAR-8 ovarian
PC-3 prostate = system: PC-3 prostate
RPMI-8226 leukemia = system: RPMI-8226 leukemia
RXF 393 renal = system: RXF 393 renal
SF-268 CNS = system: SF-268 CNS
SF-295 CNS = system: SF-295 CNS
SF-539 CNS = system: SF-539 CNS
SK-MEL-2 melanoma = system: SK-MEL-2 melanoma
SK-MEL-28 melanoma = system: SK-MEL-28 melanoma
SK-MEL-5 melanoma = system: SK-MEL-5 melanoma
SK-OV-3 ovarian = system: SK-OV-3 ovarian
SN12C renal = system: SN12C renal
SNB-19 CNS = system: SNB-19 CNS
SNB-75 CNS = system: SNB-75 CNS
SR leukemia = system: SR leukemia
SW-620 colon = system: SW-620 colon
T-47D breast = system: T-47D breast
TK-10 renal = system: TK-10 renal
U251 glioblastoma = system: U251 glioblastoma
UACC-257 melanoma = system: UACC-257 melanoma
UACC-62 melanoma = system: UACC-62 melanoma
UO-31 renal = system: UO-31 renal

SMILES: CC(=O)c1ccc2c(c1)c1cc(C(C)=O)ccc1n2CCNC(C)C
- GI50 ([…]-0 renal): 228 nM
- TGI (786-0 renal): 855 nM
- GI50 (A498 renal): 182 nM
- TGI (A498 renal): 329 nM
- GI50 (A549 NSCLC): 189 nM
- TGI (A549 NSCLC): 353 nM
- GI50 (ACHN renal): 101 nM
- TGI (ACHN renal): 245 nM
- GI50 (BT-549 breast): 348 nM
- TGI (BT-549 breast): 932 nM
- GI50 (CAKI-1 renal): 150 nM
- TGI (CAKI-1 renal): 317 nM
- GI50 (CCRF-CEM leukemia): 148 nM
- TGI (CCRF-CEM leukemia): 299 nM
- GI50 (COLO 205 colon): 164 nM
- TGI (COLO 205 colon): 311 nM
- GI50 (DU-145 prostate): 344 nM
- TGI (DU-145 prostate): 1430 nM
- GI50 (EKVX NSCLC): 409 nM
- TGI (EKVX NSCLC): 931 nM
- GI50 (HCC-2998 colon): 311 nM
- TGI (HCC-2998 colon): 811 nM
- GI50 (HCT-116 colon): 199 nM
- TGI (HCT-116 colon): 731 nM
- GI50 (HCT-15 colon): 206 nM
- TGI (HCT-15 colon): 464 nM
- GI50 (HL-60(TB) leukemia): 201 nM
- TGI (HL-60(TB) leukemia): 349 nM
- GI50 (HOP-62 NSCLC): 201 nM
- TGI (HOP-62 NSCLC): 755 nM
- GI50 (HOP-92 NSCLC): 225 nM
- TGI (HOP-92 NSCLC): 656 nM
- GI50 (HS 578T breast): 195 nM
- TGI (HS 578T breast): 376 nM
- GI50 (HT29 colon): 206 nM
- TGI (HT29 colon): 1030 nM
- GI50 (IGROV1 ovarian): 480 nM
- TGI (IGROV1 ovarian): 15100 nM
- GI50 (K-562 leukemia): 178 nM
- TGI (K-562 leukemia): 405 nM
- GI50 (KM12 colon): 286 nM
- TGI (KM12 colon): 2270 nM
- GI50 (LOX IMVI melanoma): 192 nM
- TGI (LOX IMVI melanoma): 338 nM
- GI50 (M14 melanoma): 259 nM
- TGI (M14 melanoma): 665 nM
- GI50 (MALME-3M melanoma): 172 nM
- TGI (MALME-3M melanoma): 319 nM
- GI50 (MDA-MB-231 breast): 194 nM
- TGI (MDA-MB-231 breast): 446 nM
- GI50 (MDA-MB-435 melanoma): 320 nM
- TGI (MDA-MB-435 melanoma): 922 nM
- GI50 (MDA-MB-468 breast): 164 nM
- TGI (MDA-MB-468 breast): 306 nM
- GI50 (MOLT-4 leukemia): 34.6 nM
- TGI (MOLT-4 leukemia): 101 nM
- GI50 (NCI-H226 lung): 153 nM
- TGI (NCI-H226 lung): 308 nM
- GI50 (NCI-H23 lung): 193 nM
- TGI (NCI-H23 lung): 461 nM
- GI50 (NCI-H322M lung): 234 nM
- TGI (NCI-H322M lung): 543 nM
- GI50 (NCI-H460 NSCLC): 164 nM
- TGI (NCI-H460 NSCLC): 316 nM
- GI50 (NCI-H522 lung): 152 nM
- TGI (NCI-H522 lung): 307 nM
- GI50 (NCI/ADR-RES ovarian): 204 nM
- TGI (NCI/ADR-RES ovarian): 472 nM
- GI50 (OVCAR-3 ovarian): 273 nM
- TGI (OVCAR-3 ovarian): 969 nM
- GI50 (OVCAR-4 ovarian): 244 nM
- TGI (OVCAR-4 ovarian): 637 nM
- GI50 (OVCAR-5 ovarian): 433 nM
- TGI (OVCAR-5 ovarian): 14300 nM
- GI50 (OVCAR-8 ovarian): 276 nM
- TGI (OVCAR-8 ovarian): 1320 nM
- GI50 (PC-3 prostate): 279 nM
- TGI (PC-3 prostate): 782 nM
- GI50 (RPMI-8226 leukemia): 164 nM
- TGI (RPMI-8226 leukemia): 303 nM
- GI50 (RXF 393 renal): 170 nM
- TGI (RXF 393 renal): 529 nM
- GI50 (SF-268 CNS): 222 nM
- TGI (SF-268 CNS): 618 nM
- GI50 (SF-295 CNS): 309 nM
- TGI (SF-295 CNS): 1170 nM
- GI50 (SF-539 CNS): 228 nM
- TGI (SF-539 CNS): 669 nM
- GI50 (SK-MEL-2 melanoma): 263 nM
- TGI (SK-MEL-2 melanoma): 478 nM
- GI50 (SK-MEL-28 melanoma): 207 nM
- TGI (SK-MEL-28 melanoma): 435 nM
- GI50 (SK-MEL-5 melanoma): 178 nM
- TGI (SK-MEL-5 melanoma): 322 nM
- GI50 (SK-OV-3 ovarian): 300 nM
- TGI (SK-OV-3 ovarian): 1230 nM
- GI50 (SN12C renal): 221 nM
- TGI (SN12C renal): 728 nM
- GI50 (SNB-19 CNS): 279 nM
- TGI (SNB-19 CNS): 2650 nM
- GI50 (SNB-75 CNS): 264 nM
- TGI (SNB-75 CNS): 743 nM
- GI50 (SR leukemia): 33.8 nM
- TGI (SR leukemia): 86.6 nM
- GI50 (SW-620 colon): 207 nM
- TGI (SW-620 colon): 736 nM
- GI50 (T-47D breast): 258 nM
- TGI (T-47D breast): 619 nM
- GI50 (TK-10 renal): 472 nM
- TGI (TK-10 renal): 11700 nM
- GI50 (U251 glioblastoma): 248 nM
- TGI (U251 glioblastoma): 715 nM
- GI50 (UACC-257 melanoma): 182 nM
- TGI (UACC-257 melanoma): 351 nM
- GI50 (UACC-62 melanoma): 170 nM
- TGI (UACC-62 melanoma): 313 nM
- GI50 (UO-31 renal): 168 nM
- TGI (UO-31 renal): 308 nM
